Data from publication PMC6017562, “Aethiopinolones A–E, New Pregnenolone Type Steroids from the East African Basidiomycete Fomitiporia aethiopica” (Molecules : A Journal of Synthetic Chemistry and Natural …, 2018).
≈ marks a conversion by molar mass, not a printed value.

Assays:
[1] = MTT cytotoxicity assay, L929; assay type: cell-based, mouse; details: mouse, L929 fibroblast cells, 5 days incubation
Procedure: (§1) In vitro cytotoxicity (IC50) of the pure compounds 1–5 was determined against a panel of mammalian cell lines including mouse fibroblast L929, HeLa (KB-3-1), epidermoid carcinoma cells A431, breast cancer cells MCF-7, prostate cancer cells PC-3 and adenocarcinomic human alveolar basal epithelial cells A549. The cell lines were cultured in DMEM (Gibco, ThermoFisher Scientific, Hilden, Germany) and MCF-7 in RPMI (Lonza, Cologne, Germany) media, all supplemented with 10% of fetal bovine serum (Gibco) under 10% CO2 at 37 °C. The cytotoxicity assay was performed according to the MTT (3-(4,5-dimethylthiazol-2-yl)-2,5 diphenyltetrazolium bromide) method in 96-well microplates (ThermoFisher Scientific). Briefly 60 μL aliquots of serial dilutions from an initial stock of 1 mg/mL in MeOH of the test compounds were added to 120 μL aliquots of a cell suspension (5.0 × 10^4 cells/mL) in 96-well microplates. After 5 days incubation, a MTT assay was performed, and the absorbance measured at 590 nm using an ELISA plate reader (Victor, PerkinElmer, Überlingen, Germany). The concentration at which the growth of cells was inhibited to 50% of the control (IC50) was obtained from the dose response curves. The negative control was methanol.

[2] = MTT cytotoxicity assay, KB3.1; assay type: cell-based, human; details: human, HeLa (KB-3-1) cells, KB3.1 cells, 5 days incubation
Procedure: as §1

[3] = MTT cytotoxicity assay, A431; assay type: cell-based, human; details: human, A431 epidermoid carcinoma cells, 5 days incubation
Procedure: as §1

[4] = MTT cytotoxicity assay, A549; assay type: cell-based, human; details: human, A549 alveolar basal epithelial adenocarcinoma cells, 5 days incubation
Procedure: as §1

[5] = MTT cytotoxicity assay, PC-3; assay type: cell-based, human; details: human, PC-3 prostate cancer cells, PC-3 cells, 5 days incubation
Procedure: as §1

[6] = MTT cytotoxicity assay, SKOV-3; assay type: cell-based, human; details: human, SKOV-3 cells, 5 days incubation
[7] = MTT cytotoxicity assay, MCF-7; assay type: cell-based, human; details: human, MCF-7 breast cancer cells, MCF-7 cells, 5 days incubation
Procedure: as §1

[8] = tested on: various mammalian cell lines; experiment: Cytotoxic effects against the panel of mammalian cell lines (overall statement); assay type: cell-based; details: all tested cell lines of Table 3
Procedure: as §1

[9] = tested on: mouse fibroblast L929; experiment: MTT cytotoxicity assay, L929; assay type: cell-based; details: L929 cells, 5 days incubation
Procedure: as §1

[10] = tested on: HeLa (KB-3-1); experiment: MTT cytotoxicity assay, KB3.1; assay type: cell-based, human; details: KB3.1 cells, 5 days incubation
Procedure: as §1

[11] = tested on: epidermoid carcinoma cells A431; experiment: MTT cytotoxicity assay, A431; assay type: cell-based, human; details: 5 days incubation
Procedure: as §1

[12] = tested on: adenocarcinomic human alveolar basal epithelial cells A549; experiment: MTT cytotoxicity assay, A549; assay type: cell-based; details: 5 days incubation
Procedure: as §1

[13] = tested on: prostate cancer cells PC-3; experiment: MTT cytotoxicity assay, PC-3; assay type: cell-based, human; details: PC-3 cells, 5 days incubation
Procedure: as §1

[14] = tested on: SKOV-3; experiment: MTT cytotoxicity assay, SKOV-3; assay type: cell-based, human; details: SKOV-3 cells, 5 days incubation
[15] = tested on: breast cancer cells MCF-7; experiment: MTT cytotoxicity assay, MCF-7; assay type: cell-based, human; details: MCF-7 cells, 5 days incubation
Procedure: as §1

SMILES	IC50 at 5 days [1] [µg/mL]	IC50 at 5 days [2] [µg/mL]	IC50 at 5 days [3] [µg/mL]	IC50 at 5 days [4] [µg/mL]	IC50 at 5 days [5] [µg/mL]	IC50 at 5 days [6] [µg/mL]	IC50 at 5 days [7] [µg/mL]	Cytotoxic activity against the tested cell lines (in words) [8]	Cytotoxicity IC50 [9] [µg/mL]	Cytotoxicity IC50 [10] [µg/mL]	Cytotoxicity IC50 [11] [µg/mL]	Cytotoxicity IC50 [12] [µg/mL]	Cytotoxicity IC50 [13] [µg/mL]	Cytotoxicity IC50 [14] [µg/mL]	Cytotoxicity IC50 [15] [µg/mL]
CC(=O)C1=CC[C@H]2C3=CC(=O)[C@H]4C[C@@H](O)CC[C@]4(C)[C@@]3(O)CC[C@]12C [Compound 3, Aethiopinolone C]	40 (≈ 116 µM)	35 (≈ 102 µM)	27 (≈ 78.4 µM)	70 (≈ 203 µM)	45 (≈ 131 µM)	38 (≈ 110 µM)	18 (≈ 52.3 µM)	moderate activity	–	–	–	–	–	–	–
C/C(=C\c1csc(C)n1)[C@@H]1C[C@@H]2O[C@]2(C)CCC[C@H](C)[C@H](O)[C@@H](C)C(=O)C(C)(C)[C@@H](O)CC(=O)O1 [Epothilon B, reference compound]	–	–	–	–	–	–	–	–	0.0014	0.00022	0.0006	0.005	0.0002	0.0014	0.0004
CC(=O)[C@H]1[C@H](O)C[C@H]2C3=CC(=O)[C@H]4C[C@H](O)CC[C@]4(C)[C@@]3(O)CC[C@@]21C [Compound 2, Aethiopinolone B]	45 (≈ 124 µM)	39 (≈ 108 µM)	> 70	> 70	> 70	> 70	> 70	–	–	–	–	–	–	–	–
CC(=O)C1=CC[C@H]2C3=CC(=O)[C@H]4CC(=O)CC[C@]4(C)[C@@]3(O)CC[C@]12C [Compound 5, Aethiopinolone E]	40 (≈ 117 µM)	33 (≈ 96.4 µM)	14 (≈ 40.9 µM)	43 (≈ 126 µM)	39 (≈ 114 µM)	34 (≈ 99.3 µM)	16 (≈ 46.7 µM)	–	–	–	–	–	–	–	–
CC(=O)C1=CC[C@H]2C3=CC(=O)[C@H]4C[C@H](O)CC[C@]4(C)[C@@]3(O)CC[C@]12C [Compound 4, Aethiopinolone D]	45 (≈ 131 µM)	39 (≈ 113 µM)	21 (≈ 61 µM)	52 (≈ 151 µM)	40 (≈ 116 µM)	36 (≈ 105 µM)	17 (≈ 49.4 µM)	moderate activity	–	–	–	–	–	–	–
CC(=O)C1C(O)CC2C3=CC(=O)C4CC(O)CCC4(C)C3(O)CCC21C (centres unmarked) [Compound 1, Aethiopinolone A]	28 (≈ 77.2 µM)	19 (≈ 52.4 µM)	22 (≈ 60.7 µM)	–	8 (≈ 22.1 µM)	26 (≈ 71.7 µM)	20 (≈ 55.2 µM)	strongest activity	–	–	–	–	–	–	–
